Results taken from patent US6528656B1, “Linear or cyclic aminophosphonates as pH markers in phosphorus 31 NMR spectroscopy” (Centre National de la Recherche Scientifique (CNRS), priority 1998, dated 2003).
Like-named read-outs stand apart in the source and are kept apart here.

Key:
tumour cell line = conditions: cited from earlier work
physchem [1] = type: physicochemical; conditions: 37° C., 5 mM solution in phosphate buffer, 400 MHz NMR, from titration curve
Description: The results obtained allowed titration curves to be plotted.
Each measurement was taken at 37° C. using a 5 mM solution of the test compound in a phosphate buffer on a 400 MHz NMR spectroscopy machine.
The variation in the phosphorus-31 chemical shift was studied as a function of the pH: the measurements were taken at 22° C., or 37° C. respectively, on a 400 MHz NMR machine using 5 mM solutions of the test compound in a phosphate buffer.

physchem [2] = experiment: physchem
[3] = tested on: myocardial or liver cells; experiment: toxicity, cell penetration and 31P NMR pH measurement in myocardial or liver cells; type: cell-based
Source text: The compounds of formulae (II.1) and (II.2) are on the whole particuarly non-toxic and penetrate into myocardial or liver cells (in sufficient amount to be observed but in a sufficiently small amount to remain non-toxic), thus allowing a measurement of the pH values of intracellular and extracellular media.

In the case of `O=CC[C@@H](O)[C@H](O)[C@H](O)COP(=O)(O)O` [2-deoxyglucose 6-phosphate, 2-Deoxyglucose 6-phosphate], the metabolism (tumour cell line) is listed as “not metabolized” and the toxicity (tumour cell line) is listed as “toxic to the cell”.
With `CC(C)OP(=O)(OC(C)C)C1(P(=O)(OC(C)C)OC(C)C)CCCN1` [Compound 3, 2,2-bis(diisopropoxyphosphoryl) pyrrolidine] the pKa (physchem [1]) was 3.9.
In the case of `CCOP(=O)(OCC)C1(P(=O)(OCC)OCC)CCCN1` [Compound 2, 2,2-bis(diethoxyphosphoryl) pyrrolidine], the pKa (physchem [1]) is reported as 3.47 and the pKa (physchem [2]) is reported as 3.5.
In the case of `CCOP(=O)(OCC)C1(C)CCCN1` (centres unmarked) [Compound 1, 2-methyl-2-diethoxyphosphorylpyrrolidine], the “variations in the phosphorus chemical shift as a function of intracellular acidosis versus intracellular Pi” value ([3]; in the course of ischaemia, cytosolic medium) is reported as “fully correlated” and the “pH measurements in liver compartments (extracellular, cytosolic, intravesicular medium)” value ([3]; liver, very acidic (pH 5) vesicles) is reported as “allows three measurements at the same time”.
`CCOP(=O)(OCC)C1(C)CCC(C)(P(=O)(OCC)OCC)N1` (centres unmarked) [Compound 4, 2,5-bis(diethoxyphosphoryl)-2,5-dimethylpyrrolidine] showed a pKa (physchem [1]) of 2.45.
